Test results taken from patent US7626031B2, “Substituted 3-(diarylmethylene)indolin-2-ones and methods of their use” (Symphony Evolution, Inc., priority 2002, dated 2009).

Columns and labels:
[1] = target: T1, KDR (baculovirus expressed human KDR kinase domain D807-V1356) (Homo sapiens, UniProt P35968); experiment: biochemical
T1 construct: human KDR kinase domain D807-V1356; host or cells: baculovirus expression system
Experimental: (§1) Kinase activity and compound inhibition are investigated using one or more assay formats. The ATP concentrations for each assay are selected to be close to the Michaelis-Menten constant (KM) for each individual kinase. Dose-response experiments are performed at 10 different inhibitor concentrations in a 384-well plate format. […] Exemplary kinase assays are described below. KDR Assay
KDR biochemical activity was assessed using a Luciferase-Coupled Chemiluminescent Kinase assay (LCCA) format. Kinase activity was measured as the percent ATP remaining following the kinase reaction. Remaining ATP was detected by luciferase-luciferin-coupled chemiluminescence. […] The mixture is incubated at ambient temperature for 4 hours after which 20 uL luciferase-luciferin mix is added and the chemiluminescent signal read using a Wallac Victor^2 reader.

[2] = target: EphA2 (Homo sapiens, UniProt P29317); experiment: Kinase assay, EphA2 (33P-ATP incorporation or luciferase-coupled ATP consumption); type: biochemical
EphA2, sequence (P29317 24-976, species assumed): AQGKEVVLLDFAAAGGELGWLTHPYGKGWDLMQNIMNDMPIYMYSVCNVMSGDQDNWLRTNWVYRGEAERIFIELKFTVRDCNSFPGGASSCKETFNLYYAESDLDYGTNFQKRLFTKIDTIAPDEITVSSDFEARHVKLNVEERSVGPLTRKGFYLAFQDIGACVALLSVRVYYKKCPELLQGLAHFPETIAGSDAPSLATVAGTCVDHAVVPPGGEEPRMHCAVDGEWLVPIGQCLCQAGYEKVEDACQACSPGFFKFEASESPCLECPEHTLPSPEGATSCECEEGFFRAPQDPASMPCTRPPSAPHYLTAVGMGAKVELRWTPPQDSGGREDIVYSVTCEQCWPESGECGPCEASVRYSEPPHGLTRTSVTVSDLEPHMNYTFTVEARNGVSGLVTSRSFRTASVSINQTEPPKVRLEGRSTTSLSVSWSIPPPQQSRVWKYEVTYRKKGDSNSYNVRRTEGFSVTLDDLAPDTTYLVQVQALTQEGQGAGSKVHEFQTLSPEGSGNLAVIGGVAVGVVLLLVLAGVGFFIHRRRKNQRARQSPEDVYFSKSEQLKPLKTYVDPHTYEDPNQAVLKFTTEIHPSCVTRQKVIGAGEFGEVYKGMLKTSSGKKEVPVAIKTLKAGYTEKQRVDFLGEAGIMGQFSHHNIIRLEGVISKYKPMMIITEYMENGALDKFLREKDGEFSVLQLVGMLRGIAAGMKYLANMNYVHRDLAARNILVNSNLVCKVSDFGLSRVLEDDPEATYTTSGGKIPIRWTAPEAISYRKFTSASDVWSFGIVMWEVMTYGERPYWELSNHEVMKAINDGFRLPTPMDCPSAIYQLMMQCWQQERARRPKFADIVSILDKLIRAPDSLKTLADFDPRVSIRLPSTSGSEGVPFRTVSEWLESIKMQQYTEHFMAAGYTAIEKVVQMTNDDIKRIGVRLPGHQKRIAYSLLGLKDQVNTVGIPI
Experimental: (§2) Kinase assays were performed by measurement of incorporation of γ-^33P ATP into immobilized myelin basic protein (MBP). […] Plates were washed 3× with 100 μl TBS. […] Compound dilutions were performed in DMSO and added to assay wells to a final DMSO concentration of 1%. Each data point was measured in duplicate, and at least two duplicate assays were performed for each individual compound determination. Enzyme was added to final concentrations of 10 nM or 20 nM, for example. A mixture of unlabeled ATP and γ-^33P ATP was added to start the reaction (2×10^6 cpm of γ-^33P ATP per well (3000 Ci/mmole) and either 10 μM or 30 μM unlabeled ATP, typically. The reactions were carried out for 1 hour at room temperature with shaking. Plates were washed 7× with TBS, followed by the addition of 50 μl/well scintillation fluid (Wallac). Plates were read using a Wallac Trilux counter. This is only one format of such assays, various other formats are possible, as known to one of ordinary skill in the art.
(§3) Tyrosine kinase activity is determined by 1) measurement of kinase-dependent ATP consumption by in the presence of a generic substrate such as, polyglutamic acid, tyrosine, 4:1 (pEY), by luciferase/luciferin-mediated chemiluminescence or; 2) incorporation of radioactive phosphate derived from ^33P-ATP into a generic substrate which has been adsorbed onto the well surface of polystyrene microtiter plates. Phosphorylated substrate products are quantified by scintillation spectrometry.
as §1

[3] = target: Flt-1 (Homo sapiens, UniProt P17948); experiment: Kinase assay, Flt-1 (33P-ATP incorporation or luciferase-coupled ATP consumption); type: biochemical; conditions: read-out: Flt1 IC50
Experimental: as §2, §3, §1

[4] = target: EGFR (Homo sapiens, UniProt P00533); experiment: Kinase assay, EGFR (33P-ATP incorporation or luciferase-coupled ATP consumption); type: biochemical
EGFR, sequence (P00533 25-1210, species assumed): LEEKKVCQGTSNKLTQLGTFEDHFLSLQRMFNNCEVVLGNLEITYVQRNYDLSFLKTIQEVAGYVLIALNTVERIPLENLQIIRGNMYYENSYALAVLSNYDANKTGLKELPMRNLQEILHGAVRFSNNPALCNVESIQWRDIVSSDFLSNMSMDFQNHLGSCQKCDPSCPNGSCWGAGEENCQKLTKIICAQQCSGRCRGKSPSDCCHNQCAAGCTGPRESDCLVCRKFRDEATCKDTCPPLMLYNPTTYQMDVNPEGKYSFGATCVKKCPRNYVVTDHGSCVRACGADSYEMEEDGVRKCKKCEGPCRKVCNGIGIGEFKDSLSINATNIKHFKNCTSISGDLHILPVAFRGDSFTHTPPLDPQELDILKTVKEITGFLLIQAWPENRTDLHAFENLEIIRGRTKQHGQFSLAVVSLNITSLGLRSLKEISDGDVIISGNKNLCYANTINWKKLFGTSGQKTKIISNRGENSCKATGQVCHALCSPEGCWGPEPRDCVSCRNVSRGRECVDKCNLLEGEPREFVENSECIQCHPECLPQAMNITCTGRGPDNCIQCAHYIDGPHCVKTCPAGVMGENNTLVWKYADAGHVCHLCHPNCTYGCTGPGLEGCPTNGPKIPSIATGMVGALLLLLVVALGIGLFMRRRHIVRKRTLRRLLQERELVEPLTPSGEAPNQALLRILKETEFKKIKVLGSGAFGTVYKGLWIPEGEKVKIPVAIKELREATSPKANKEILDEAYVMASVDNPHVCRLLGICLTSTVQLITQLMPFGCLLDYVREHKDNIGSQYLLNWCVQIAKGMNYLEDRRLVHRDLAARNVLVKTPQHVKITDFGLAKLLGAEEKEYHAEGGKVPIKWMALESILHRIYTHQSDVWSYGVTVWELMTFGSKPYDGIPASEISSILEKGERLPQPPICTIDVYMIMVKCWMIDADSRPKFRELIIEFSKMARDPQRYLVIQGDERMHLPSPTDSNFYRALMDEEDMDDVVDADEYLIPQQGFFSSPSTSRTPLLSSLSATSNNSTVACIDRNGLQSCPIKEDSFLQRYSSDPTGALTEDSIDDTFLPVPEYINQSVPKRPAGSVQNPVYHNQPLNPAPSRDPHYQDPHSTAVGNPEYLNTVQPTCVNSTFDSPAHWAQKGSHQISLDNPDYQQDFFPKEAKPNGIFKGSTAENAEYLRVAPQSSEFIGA
Experimental: as §2, §3, §1

[5] = target: PDGFR alpha (Homo sapiens, UniProt P16234); experiment: Kinase assay, PDGFR alpha (33P-ATP incorporation or luciferase-coupled ATP consumption); type: biochemical; conditions: read-out: PDGF-R-A IC50
PDGFR alpha, sequence (P16234 24-1089): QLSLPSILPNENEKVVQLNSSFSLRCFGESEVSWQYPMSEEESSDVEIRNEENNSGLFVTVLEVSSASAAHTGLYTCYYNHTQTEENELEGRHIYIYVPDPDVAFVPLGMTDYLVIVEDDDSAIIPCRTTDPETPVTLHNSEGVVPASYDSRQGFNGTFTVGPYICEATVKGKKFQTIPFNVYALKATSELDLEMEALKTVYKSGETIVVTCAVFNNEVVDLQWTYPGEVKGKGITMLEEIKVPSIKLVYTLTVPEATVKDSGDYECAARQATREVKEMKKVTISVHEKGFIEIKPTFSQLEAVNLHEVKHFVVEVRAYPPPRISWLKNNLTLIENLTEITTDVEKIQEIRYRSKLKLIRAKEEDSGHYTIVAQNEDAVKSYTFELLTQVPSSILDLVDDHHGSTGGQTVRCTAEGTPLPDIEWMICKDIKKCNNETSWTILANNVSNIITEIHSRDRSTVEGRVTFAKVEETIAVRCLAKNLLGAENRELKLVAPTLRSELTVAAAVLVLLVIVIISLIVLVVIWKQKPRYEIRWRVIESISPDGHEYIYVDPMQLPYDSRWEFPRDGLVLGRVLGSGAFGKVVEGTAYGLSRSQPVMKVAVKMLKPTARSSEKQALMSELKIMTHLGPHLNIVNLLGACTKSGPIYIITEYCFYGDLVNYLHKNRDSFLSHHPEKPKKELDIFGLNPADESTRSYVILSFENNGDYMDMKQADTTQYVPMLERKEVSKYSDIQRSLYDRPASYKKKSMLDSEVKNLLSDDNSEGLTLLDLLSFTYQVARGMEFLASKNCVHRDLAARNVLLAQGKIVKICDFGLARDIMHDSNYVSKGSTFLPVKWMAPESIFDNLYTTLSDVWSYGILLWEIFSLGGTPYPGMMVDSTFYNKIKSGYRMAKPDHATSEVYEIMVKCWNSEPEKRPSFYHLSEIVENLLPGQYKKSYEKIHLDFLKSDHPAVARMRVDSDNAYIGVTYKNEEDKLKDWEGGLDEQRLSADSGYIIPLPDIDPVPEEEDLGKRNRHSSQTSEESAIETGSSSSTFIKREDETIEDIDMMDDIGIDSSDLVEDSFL
Experimental: as §2, §3, §1

[6] = target: Fyn (Homo sapiens, UniProt P06241); experiment: Kinase assay, Fyn; type: biochemical
Fyn, sequence (P06241 whole entry, species assumed): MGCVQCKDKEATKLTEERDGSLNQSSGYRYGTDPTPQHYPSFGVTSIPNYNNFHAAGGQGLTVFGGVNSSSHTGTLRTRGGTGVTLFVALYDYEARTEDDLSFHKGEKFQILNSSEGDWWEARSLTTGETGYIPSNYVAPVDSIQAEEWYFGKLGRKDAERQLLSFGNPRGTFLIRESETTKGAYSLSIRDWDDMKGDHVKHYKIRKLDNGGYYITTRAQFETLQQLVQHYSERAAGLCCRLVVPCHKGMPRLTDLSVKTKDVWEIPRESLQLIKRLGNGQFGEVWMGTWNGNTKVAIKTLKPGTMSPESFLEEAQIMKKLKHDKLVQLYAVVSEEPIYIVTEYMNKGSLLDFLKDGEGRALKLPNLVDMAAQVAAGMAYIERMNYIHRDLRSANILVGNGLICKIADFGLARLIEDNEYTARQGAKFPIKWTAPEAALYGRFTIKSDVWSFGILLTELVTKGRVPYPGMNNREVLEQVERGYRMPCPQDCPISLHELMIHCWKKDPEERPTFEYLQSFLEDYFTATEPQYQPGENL
Experimental: as §1

[7] = target: IRK (Homo sapiens, UniProt P06213); experiment: Kinase assay, IRK; type: biochemical
IRK, sequence (P06213 28-1382): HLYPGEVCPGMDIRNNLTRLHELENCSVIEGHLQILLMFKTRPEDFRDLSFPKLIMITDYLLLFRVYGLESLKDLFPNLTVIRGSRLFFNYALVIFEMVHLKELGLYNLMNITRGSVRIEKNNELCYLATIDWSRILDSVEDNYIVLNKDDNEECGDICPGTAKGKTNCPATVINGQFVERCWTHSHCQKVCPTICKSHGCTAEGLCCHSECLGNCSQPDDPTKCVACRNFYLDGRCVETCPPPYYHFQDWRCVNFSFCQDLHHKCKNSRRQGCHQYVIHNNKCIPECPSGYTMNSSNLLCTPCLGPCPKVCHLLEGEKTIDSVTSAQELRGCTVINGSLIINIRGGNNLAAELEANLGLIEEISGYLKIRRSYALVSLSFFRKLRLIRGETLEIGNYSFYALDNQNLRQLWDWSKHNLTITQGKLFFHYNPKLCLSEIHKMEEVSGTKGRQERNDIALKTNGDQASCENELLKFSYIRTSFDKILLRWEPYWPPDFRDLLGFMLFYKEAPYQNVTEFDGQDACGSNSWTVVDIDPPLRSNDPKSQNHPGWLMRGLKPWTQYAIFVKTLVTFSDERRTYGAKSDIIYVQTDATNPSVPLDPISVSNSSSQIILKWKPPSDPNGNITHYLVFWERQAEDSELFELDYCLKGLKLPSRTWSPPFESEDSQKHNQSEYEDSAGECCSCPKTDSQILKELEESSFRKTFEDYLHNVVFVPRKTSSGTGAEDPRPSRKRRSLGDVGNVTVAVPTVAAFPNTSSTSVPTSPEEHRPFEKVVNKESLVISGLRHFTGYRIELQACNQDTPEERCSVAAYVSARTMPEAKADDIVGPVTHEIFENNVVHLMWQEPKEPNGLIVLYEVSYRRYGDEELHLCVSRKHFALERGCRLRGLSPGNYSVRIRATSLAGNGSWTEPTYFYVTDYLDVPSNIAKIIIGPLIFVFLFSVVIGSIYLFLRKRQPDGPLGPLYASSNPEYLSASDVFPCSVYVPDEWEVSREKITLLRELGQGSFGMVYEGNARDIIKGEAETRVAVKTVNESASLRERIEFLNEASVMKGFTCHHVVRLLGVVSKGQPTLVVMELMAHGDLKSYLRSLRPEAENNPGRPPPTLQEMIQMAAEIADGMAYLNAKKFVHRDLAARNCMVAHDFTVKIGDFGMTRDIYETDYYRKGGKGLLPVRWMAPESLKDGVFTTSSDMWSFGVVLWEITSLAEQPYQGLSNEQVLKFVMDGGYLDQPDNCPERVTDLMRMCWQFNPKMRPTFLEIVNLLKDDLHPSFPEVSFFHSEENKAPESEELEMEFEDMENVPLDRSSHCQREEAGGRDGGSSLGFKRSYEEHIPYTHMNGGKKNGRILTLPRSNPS
Experimental: as §1

[8] = target: FGFR1 (Homo sapiens, UniProt P11362); experiment: Kinase assay, FGFR1 (33P-ATP incorporation or luciferase-coupled ATP consumption); type: biochemical
Experimental: as §2, §3, §1

Structure (SMILES)	IC50 [1] [nM]	IC50 [2] [nM]	IC50 [3] [nM]	IC50 [4] [nM]	IC50 [5] [nM]	IC50 [6] [nM]	IC50 [7] [nM]	IC50 [8] [nM]
CCN1CCC(Nc2ccc3c(c2)/C(=C(\c2ccc(F)cc2)c2nc4ccccc4[nH]2)C(=O)N3)CC1 [Entry 16, (3Z)-3-[1H-benzimidazol-2-yl(4-fluorophenyl)methylidene]-5[(1-ethylpiperidin-4-yl)amino]-1,3-dihydro-2H-indol-2-one]	< 50	500 to 5000	50 to 500	500 to 5000	< 50	50 to 500	500 to 5000	
CCN1CCC(Nc2ccc3c(c2)/C(=C(\c2ccc(C)cc2)c2nc4cc(OC)ccc4[nH]2)C(=O)N3)CC1 [Entry 6, (3Z)-5-[(1-ethylpiperidin-4-yl)amino]-3-[[5-(methyloxy)-1 H-benzimidazol-2-yl](4-methylphenyl)methylidene]-1,3-dihydro-2H-indol-2-one]	< 50	500 to 5000	50 to 500	500 to 5000	< 50	< 50	500 to 5000	
COCCN1CCC(Nc2ccc3c(c2)/C(=C(\c2cccc(F)c2)c2nc(C)c[nH]2)C(=O)N3)CC1 [Entry 70, (3Z)-3-[(3-fluorophenyl)(4-methyl-1H-imidazol-2-yl)methylidene]-5-({1-[2-(methyloxy)ethyl]piperidin-4-yl}amino)-1,3-dihydro-2H-indol-2-one]	< 50	50 to 500		50 to 500	< 50	< 50	500 to 5000	< 50
CCOC(=O)c1[nH]c(/C(=C2\C(=O)Nc3ccc(NC4CCN(CCOC)CC4)cc32)c2cccc(F)c2)nc1C [Entry 88, ethyl 2-{(Z)-(3-fluorophenyl)[5-({1-[2-(methyloxy)ethyl]piperidin-4-yl}amino)-2-oxo-1,2-dihydro-3H-indol-3-ylidene]methyl}-4-methyl-1H-imidazole-5-carboxylate]	50 to 500	> 5000		> 5000	< 50	50 to 500	> 5000	50 to 500
O=C1Nc2ccc(NC3CCN(CCN4CCCCC4)CC3)cc2/C1=C(\c1cccc(F)c1)c1ncc[nH]1 [Entry 82]	50 to 500	500 to 5000		> 5000	50 to 500	50 to 500	> 5000	50 to 500
COCCN1CCC(Nc2ccc3c(c2)/C(=C(\c2ccc(F)c(Cl)c2)c2ncc[nH]2)C(=O)N3)CC1 [Entry 80]	< 50	500 to 5000		> 5000	50 to 500	50 to 500	> 5000	50 to 500
O=C1Nc2ccc(NC3CCN(CCN4CCOCC4)CC3)cc2/C1=C(\c1cccc(F)c1)c1ncc[nH]1 [Entry 83]	< 50	500 to 5000		> 5000	< 50	50 to 500	> 5000	< 50
COCCN1CCC(Nc2ccc3c(c2)/C(=C(\c2ccc(F)c(F)c2)c2ncc[nH]2)C(=O)N3)CC1 [Entry 79]	< 50	500 to 5000		> 5000	< 50	50 to 500	> 5000	50 to 500
CCN(CC)CCN1CCC(Nc2ccc3c(c2)/C(=C(\c2cccc(F)c2)c2ncc[nH]2)C(=O)N3)CC1 [Entry 84, (3Z)-5-({1-[2-(diethylamino)ethyl]piperidin-4-yl}amino)-3-[(3-fluorophenyl)(1H-imidazol-2-yl)methylidene]-1,3-dihydro-2H-indol-2-one]	50 to 500	500 to 5000		> 5000	50 to 500	50 to 500	> 5000	50 to 500
O=C1Nc2ccc(NC3CCNCC3)cc2/C1=C(\c1cccc(F)c1)c1ncc[nH]1 [Entry 81, (3Z)-3-[(3-fluorophenyl)(1H-imidazol-2-yl)methylidene]-5-(piperidin-4-ylamino)-1,3-dihydro-2H-indol-2-one]	< 50	50 to 500		> 5000	< 50	< 50	500 to 5000	< 50
CCN1CCC(Nc2ccc3c(c2)/C(=C(/c2cc(F)cc(F)c2)c2nc4cc(F)ccc4[nH]2)C(=O)N3)CC1 [Entry 61, (3E)-3-[(3,5-difluorophenyl)(5-fluoro-1H-benzimidazol-2-yl)methylidene]-5-[(1-ethylpiperidin-4-yl)amino]-1,3-dihydro-2H-indol-2-one]	< 50	> 5000		> 5000	< 50	< 50	> 5000	50 to 500
Cc1ccc(/C(=C2/C(=O)Nc3ccc(NC4CCN(C)CC4)cc32)c2ncc[nH]2)cc1 [Entry 86]	< 50	50 to 500		50 to 500	< 50	< 50	500 to 5000	< 50
COCCN1CCC(Nc2ccc3c(c2)/C(=C(\c2cccc(F)c2)c2ncn[nH]2)C(=O)N3)CC1 [Entry 87]	50 to 500	> 5000		> 5000	50 to 500	> 5000	> 5000	50 to 500
COCCN1CCC(Nc2ccc3c(c2)/C(=C(\c2ccc(F)cc2)c2ncc[nH]2)C(=O)N3)CC1 [Entry 78]	< 50	500 to 5000		> 5000	< 50	50 to 500	> 5000	50 to 500
COCCN1CCC(Nc2ccc3c(c2)/C(=C(\c2ccc(C(F)(F)F)c(F)c2)c2ncc[nH]2)C(=O)N3)CC1 [Entry 92]	< 50	500 to 5000		> 5000	< 50	50 to 500	> 5000	50 to 500
CCCc1ccc(/C(=C2/C(=O)Nc3ccc(NC4CCN(CC)CC4)cc32)c2ncc[nH]2)cc1 [Entry 59, (3Z)-5-[(1-ethylpiperidin-4-yl)amino]-3-[1H-imidazol-2-yl(4-propylphenyl)methylidene]-1,3-dihydro-2H-indol-2-one]	< 50	500 to 5000		50 to 500	< 50	< 50	500 to 5000	< 50
CCN1CCC(Nc2ccc3c(c2)/C(=C(\c2cc(F)cc(F)c2)c2nc4cc(F)ccc4[nH]2)C(=O)N3)CC1 [Entry 62, (3Z)-3-[(3,5-difluorophenyl)(5-fluoro-1H-benzimidazol-2-yl)methylidene]-5-[(1-ethylpiperidin-4-yl)amino]-1,3-dihydro-2H-indol-2-one]	< 50	500 to 5000		50 to 500	< 50	< 50	> 5000	< 50
COCCN1CCC(Nc2ccc3c(c2)/C(=C(\c2ccc(C)cc2)c2ncc[nH]2)C(=O)N3)CC1 [Entry 69]	< 50	50 to 500		50 to 500	< 50	< 50	500 to 5000	< 50
COCCN1CCC(Nc2ccc3c(c2)/C(=C(\c2cc(F)cc(F)c2)c2ncc[nH]2)C(=O)N3)CC1 [Entry 75, (3Z)-3-[(3,5-difluorophenyl)(1H-imidazol-2-yl)methylidene]-5-({1-[2-(methyloxy)ethyl]piperidin-4-yl}amino)-1,3-dihydro-2H-indol-2-one]	< 50	500 to 5000		50 to 500	< 50	< 50	> 5000	< 50
COCCN1CCC(Nc2ccc3c(c2)/C(=C(\c2ccc(C)c(F)c2)c2ncc[nH]2)C(=O)N3)CC1 [Entry 63, (3Z)-3-[(3-fluoro-4-methylphenyl)(1H-imidazol-2-yl)methylidene]-5-({1-[2-(methyloxy)ethyl]piperidin-4-yl}amino)-1,3-dihydro-2H-indol-2-one]	< 50	50 to 500		50 to 500	< 50	< 50	500 to 5000	< 50
